In ChEMBL document CHEMBL5303573, “Mapping human microbiome drug metabolism by gut bacteria and their genes” (Nature, 2019):

How the values were obtained:
[1] = The drug is tested on Bifidobacterium ruminantium strain: fecal isolate for biotransformation. The drug concentrations were measured before and after a 12-h incubation by liquid-chromatography-coupled mass spectrometry (LC–MS); conditions: 2 µM
[2] = The drug is tested on Collinsella intestinalis strain: DSM13280 for biotransformation. The drug concentrations were measured before and after a 12-h incubation by liquid-chromatography-coupled mass spectrometry (LC–MS); conditions: 2 µM
[3] = The drug is tested on Bacteroides caccae strain: ATCC43185 for biotransformation. The drug concentrations were measured before and after a 12-h incubation by liquid-chromatography-coupled mass spectrometry (LC–MS); conditions: 2 µM
[4] = The drug is tested on Bacteroides coprophilus strain: DSM18228 for biotransformation. The drug concentrations were measured before and after a 12-h incubation by liquid-chromatography-coupled mass spectrometry (LC–MS); conditions: 2 µM
[5] = The drug is tested on Bacteroides finegoldii strain: DSM17565 for biotransformation. The drug concentrations were measured before and after a 12-h incubation by liquid-chromatography-coupled mass spectrometry (LC–MS); conditions: 2 µM
[6] = The drug is tested on Bacteroides fragilis strain: HMW615 for biotransformation. The drug concentrations were measured before and after a 12-h incubation by liquid-chromatography-coupled mass spectrometry (LC–MS); conditions: 2 µM
[7] = The drug is tested on Bacteroides uniformis strain: ATCC8492 for biotransformation. The drug concentrations were measured before and after a 12-h incubation by liquid-chromatography-coupled mass spectrometry (LC–MS); conditions: 2 µM
[8] = The drug is tested on Bacteroides vulgatus strain: ATCC8482 for biotransformation. The drug concentrations were measured before and after a 12-h incubation by liquid-chromatography-coupled mass spectrometry (LC–MS); conditions: phocaeicola vulgatus, 2 µM
[9] = The drug is tested on Bacteroides sp. WH2 strain: WH2 for biotransformation. The drug concentrations were measured before and after a 12-h incubation by liquid-chromatography-coupled mass spectrometry (LC–MS); conditions: bacteroides sp. wh2, 12 h, 2 µM
[10] = The drug is tested on Bacteroides xylanisolvens strain: DSM18836 for biotransformation. The drug concentrations were measured before and after a 12-h incubation by liquid-chromatography-coupled mass spectrometry (LC–MS); conditions: 2 µM
[11] = The drug is tested on Odoribacter splanchnicus strain: fecal isolate for biotransformation. The drug concentrations were measured before and after a 12-h incubation by liquid-chromatography-coupled mass spectrometry (LC–MS); conditions: 2 µM
[12] = The drug is tested on Anaerococcus hydrogenalis strain: DSM7454 for biotransformation. The drug concentrations were measured before and after a 12-h incubation by liquid-chromatography-coupled mass spectrometry (LC–MS); conditions: 2 µM
[13] = The drug is tested on Dorea formicigenerans strain: ATCC27755 for biotransformation. The drug concentrations were measured before and after a 12-h incubation by liquid-chromatography-coupled mass spectrometry (LC–MS); conditions: 2 µM
[14] = The drug is tested on Providencia rettgeri strain: DSM1131 for biotransformation. The drug concentrations were measured before and after a 12-h incubation by liquid-chromatography-coupled mass spectrometry (LC–MS); type: ADME; design: dose 2 uM, timepoint 0 vs 12 hours; conditions: 2 µM
[15] = bacteroides fragilis, 12 h, 2 µM
Description: The drug is tested on Bacteroides fragilis strain: DS-208 for biotransformation. The drug concentrations were measured before and after a 12-h incubation by liquid-chromatography-coupled mass spectrometry (LC–MS)

[16] = bacteroides intestinalis, 12 h, 2 µM
Description: The drug is tested on Bacteroides intestinalis strain: DSM17393 for biotransformation. The drug concentrations were measured before and after a 12-h incubation by liquid-chromatography-coupled mass spectrometry (LC–MS)

[17] = parabacteroides johnsonii, 12 h, 2 µM
Description: The drug is tested on Parabacteroides johnsonii strain: DSM18315 for biotransformation. The drug concentrations were measured before and after a 12-h incubation by liquid-chromatography-coupled mass spectrometry (LC–MS)

[18] = akkermansia muciniphila, 12 h, 2 µM
Description: The drug is tested on Akkermansia muciniphila strain: ATCC BAA-835 for biotransformation. The drug concentrations were measured before and after a 12-h incubation by liquid-chromatography-coupled mass spectrometry (LC–MS)

[19] = The drug is tested on Ruminococcus torques strain: ATCC27756 for biotransformation. The drug concentrations were measured before and after a 12-h incubation by liquid-chromatography-coupled mass spectrometry (LC–MS); type: ADME; design: dose 2 uM, timepoint 0 vs 12 hours; conditions: 2 µM
[20] = The drug is tested on Providencia stuartii strain: ATCC25827 for biotransformation. The drug concentrations were measured before and after a 12-h incubation by liquid-chromatography-coupled mass spectrometry (LC–MS); conditions: 2 µM

Row | Structure (SMILES) | Bacterial Biotransformation [1] | Bacterial Biotransformation [2] | Bacterial Biotransformation [3] | Bacterial Biotransformation [4] | Bacterial Biotransformation [5] | Bacterial Biotransformation [6] | Bacterial Biotransformation [7] | Bacterial Biotransformation [8] | Bacterial Biotransformation [9] | Bacterial Biotransformation [10] | Bacterial Biotransformation [11] | Bacterial Biotransformation [12] | Bacterial Biotransformation [13] | Bacterial Biotransformation [14] | Bacterial Biotransformation [15] | Bacterial Biotransformation [16] | Bacterial Biotransformation [17] | Bacterial Biotransformation [18] | Bacterial Biotransformation [19] | Bacterial Biotransformation [20]
1 | CC(=O)OCC(=O)[C@@]1(OC(C)=O)[C@@H](C)C[C@H]2[C@@H]3C[C@H](F)C4=CC(=O)C=C[C@]4(C)[C@@]3(F)[C@@H](O)C[C@@]21C [DIFLORASONE DIACETATE] | Compound metabolized | Compound NOT metabolized | Compound metabolized | Compound NOT metabolized | Compound metabolized | Compound metabolized | Compound metabolized | Compound metabolized | Compound metabolized | Compound metabolized | Compound metabolized | Compound NOT metabolized | Compound NOT metabolized | Compound metabolized | Compound metabolized | Compound metabolized | Compound metabolized | Compound metabolized |  | 
2 | O=c1[nH]c2ccccc2n1CCCN1CCC(n2c(=O)[nH]c3cc(Cl)ccc32)CC1 [DOMPERIDONE] | Compound NOT metabolized | Compound NOT metabolized | Compound NOT metabolized | Compound NOT metabolized | Compound NOT metabolized | Compound NOT metabolized | Compound NOT metabolized | Compound NOT metabolized | Compound NOT metabolized | Compound NOT metabolized | Compound NOT metabolized | Compound NOT metabolized | Compound NOT metabolized | Compound NOT metabolized | Compound NOT metabolized | Compound NOT metabolized | Compound NOT metabolized | Compound NOT metabolized | Compound NOT metabolized | 
3 | CC(C)(C(=O)O)c1ccc(C(O)CCCN2CCC(C(O)(c3ccccc3)c3ccccc3)CC2)cc1 (stereo unspecified) [FEXOFENADINE] | Compound NOT metabolized | Compound NOT metabolized | Compound NOT metabolized | Compound NOT metabolized | Compound NOT metabolized | Compound NOT metabolized | Compound NOT metabolized | Compound NOT metabolized | Compound NOT metabolized |  | Compound NOT metabolized | Compound NOT metabolized | Compound NOT metabolized | Compound NOT metabolized | Compound NOT metabolized | Compound NOT metabolized | Compound NOT metabolized | Compound NOT metabolized | Compound NOT metabolized | Compound NOT metabolized
4 | Cc1ccnc2c1NC(=O)c1cccnc1N2C1CC1 [NEVIRAPINE] | Compound NOT metabolized | Compound NOT metabolized | Compound NOT metabolized | Compound NOT metabolized | Compound NOT metabolized | Compound NOT metabolized |  | Compound NOT metabolized | Compound NOT metabolized | Compound NOT metabolized |  | Compound NOT metabolized | Compound NOT metabolized | Compound NOT metabolized | Compound metabolized | Compound NOT metabolized | Compound NOT metabolized | Compound NOT metabolized | Compound NOT metabolized | Compound NOT metabolized
5 | COc1ccc2c3c1O[C@H]1C[C@@H](O)C=C[C@@]31CCN(C)C2 [GALANTAMINE] | Compound NOT metabolized | Compound NOT metabolized | Compound NOT metabolized | Compound metabolized |  | Compound metabolized | Compound metabolized | Compound metabolized | Compound metabolized | Compound metabolized | Compound NOT metabolized | Compound NOT metabolized | Compound NOT metabolized | Compound NOT metabolized | Compound metabolized | Compound NOT metabolized | Compound NOT metabolized | Compound NOT metabolized | Compound NOT metabolized | 
6 | CC1Cc2ccccc2N1NC(=O)c1ccc(Cl)c(S(N)(=O)=O)c1 (stereo unspecified) [INDAPAMIDE] | Compound NOT metabolized | Compound NOT metabolized | Compound NOT metabolized | Compound NOT metabolized |  | Compound NOT metabolized | Compound NOT metabolized | Compound NOT metabolized | Compound NOT metabolized | Compound NOT metabolized | Compound NOT metabolized | Compound NOT metabolized | Compound NOT metabolized | Compound NOT metabolized | Compound NOT metabolized | Compound NOT metabolized | Compound NOT metabolized | Compound NOT metabolized | Compound NOT metabolized | 
7 | Cc1cc2c(s1)Nc1ccccc1N=C2N1CCN(C)CC1 [OLANZAPINE] | Compound NOT metabolized | Compound NOT metabolized | Compound NOT metabolized | Compound metabolized | Compound NOT metabolized | Compound metabolized |  | Compound NOT metabolized |  | Compound NOT metabolized | Compound metabolized | Compound NOT metabolized | Compound NOT metabolized | Compound NOT metabolized | Compound NOT metabolized | Compound NOT metabolized | Compound NOT metabolized | Compound NOT metabolized | Compound NOT metabolized | 
8 | C#C[C@]1(OC(C)=O)CC[C@H]2[C@@H]3CCC4=CC(=O)CC[C@@H]4[C@H]3CC[C@@]21C [NORETHINDRONE ACETATE] | Compound NOT metabolized | Compound metabolized | Compound metabolized | Compound metabolized | Compound metabolized | Compound metabolized | Compound metabolized | Compound metabolized | Compound metabolized | Compound metabolized | Compound metabolized | Compound NOT metabolized | Compound NOT metabolized | Compound NOT metabolized | Compound metabolized | Compound metabolized | Compound metabolized | Compound metabolized | Compound metabolized | 
